From patent publication US10294229B2, “Heteroaryl substituted aminopyridine compounds” (BRISTOL-MYERS SQUIBB COMPANY, priority 2015, dated 2019)

Assays:
IRAK4 = IRAK4 (Homo sapiens (Human), UniProt Q9NWZ3); experiment: IRAK4 Inhibition Assay; assay type: biochemical; conditions: ATP 500 μM; IRAK4 0.6 nM
How it was run: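 Mobility-shift readout: phosphorylated and unphosphorylated fluorescent peptide (1.5 μM) resolved by electrophoresis after a 60 min room-temperature reaction stopped with EDTA. Reaction holds 0.6 nM IRAK4, 500 μM ATP and 1.6% DMSO in HEPES pH 7.2/MgCl2/Brij 35/DTT buffer; percent inhibition set against vehicle and no-enzyme controls.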

[1] = system: Human whole blood stimulated with a TLR2 agonist (lipoteichoic acid), IL-6 levels; experiment: IRAK4 Whole Blood Assay; assay type: cell-based; conditions: lipoteichoic acid 10 μg/mL
Method: Human whole blood containing the anti-coagulant ACD-A was plated in 384-well plate (25 μL/well) and incubated with compounds for 60 minutes at 37° C. in a 5% CO2 incubator. The blood was stimulated with a TLR2 agonist, 10 μg/mL final concentration of lipoteichoic acid (Invivogen, San Diego, Calif.) in 25 μL RPMI (Gibco) for 5 hours in a 5% CO2 incubator. At the end of the incubation, plates were centrifuged at 2300 rpm for 5 minutes. Supernatants were harvested and analyzed for IL-6 levels by Flow Cytometry beads assay (BD Biosciences, San Jose, Calif.).

IRAK4, sequence (Q9NWZ3 whole entry, species assumed): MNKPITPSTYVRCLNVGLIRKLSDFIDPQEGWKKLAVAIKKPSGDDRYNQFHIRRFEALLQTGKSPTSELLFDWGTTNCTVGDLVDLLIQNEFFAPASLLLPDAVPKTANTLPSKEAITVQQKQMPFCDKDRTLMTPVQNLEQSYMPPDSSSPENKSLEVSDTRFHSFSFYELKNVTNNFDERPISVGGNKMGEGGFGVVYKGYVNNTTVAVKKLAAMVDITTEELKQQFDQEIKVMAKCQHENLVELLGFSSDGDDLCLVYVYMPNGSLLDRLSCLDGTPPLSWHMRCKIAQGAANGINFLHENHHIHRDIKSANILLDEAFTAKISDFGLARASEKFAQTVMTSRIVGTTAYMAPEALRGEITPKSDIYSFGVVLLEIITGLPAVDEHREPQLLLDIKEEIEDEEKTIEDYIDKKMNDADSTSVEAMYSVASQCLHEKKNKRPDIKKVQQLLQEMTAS

SMILES | IC50 (IRAK4) [nM] | EC50 ([1]; Homo sapiens) [nM] | EC50 [1] [nM]
CC(C)Nc1cc(-n2ncc3cc(C#N)cnc32)ncc1-n1cc(CC(F)C(C)(C)O)nn1 (racemic) [345, racemic, (±)-1-(5-(4-(2-fluoro-3-hydroxy-3-methylbutyl)-1H-1,2,3-triazol-1-yl)-4-(isopropylamino)pyridin-2-yl)-1H-pyrazolo[3,4-b]pyridine-5-carbonitrile] | 4 | 270 | 
CC(C)Nc1cc(-n2ncc3cc(C#N)cnc32)ncc1-c1cn([C@@H]2CCC[C@H]2O)nn1 (single isomer, unassigned) [Example 80] | 3 |  | 590
CC(C)Nc1cc(-n2cnc3cc(C#N)cnc32)ncc1-c1cn([C@@H]2CCC[C@H]2O)nn1 (single isomer, unassigned) [Example 81] | 4 | 1540 | 
CC(C)Nc1cc(-n2ncc3cc(C#N)cnc32)ncc1-c1cn([C@@H]2CCC[C@H]2O)nn1 (single isomer, unassigned) [Example 82] | 5 |  | 1660
CC(C)Nc1cc(-n2cnc3cc(C#N)cnc32)ncc1-c1cn([C@@H]2CCC[C@H]2O)nn1 (single isomer, unassigned) [Example 83] | 5 |  | 860
CC(C)Nc1cc(-n2ncc3cc(C#N)cnc32)ncc1-c1cn([C@H](C)[C@H](C)O)nn1 (single isomer, unassigned) [Example 89] | 7 |  | 930
CC(C)Nc1cc(-n2ncc3cc(C#N)cnc32)ncc1-c1cn([C@@H](C)[C@H](C)O)nn1 (single isomer, unassigned) [Example 91] | 5 |  | 1920
CC(C)Nc1cc(-n2ccc3cncnc32)ncc1-c1cn(CCO)nn1 [Example 1, 2-(4-(4-(isopropylamino)-6-(7H-pyrrolo[2,3-d]pyrimidin-7-yl)pyridin-3-yl)-1H-1,2,3-triazol-1-yl)ethanol] | 7 | 830 | 
CCOC(=O)Cn1cc(-c2cnc(-n3ccc4cncnc43)cc2NC(C)C)nn1 [Example 2, ethyl 2-(4-(4-(isopropylamino)-6-(7H-pyrrolo[2,3-d]pyrimidin-7-yl)pyridin-3-yl)-1H-1,2,3-triazol-1-yl)acetate] | 1 | 10000 | 
CC(C)Nc1cc(-n2ccc3cncnc32)ncc1-c1cn(CCCCCN)nn1 [Example 5, 5-(1-(5-aminopentyl)-1H-1,2,3-triazol-4-yl)-N-isopropyl-2-(7H-pyrrolo[2,3-d]pyrimidin-7-yl)pyridin-4-amine] | 3 | 2130 | 
CC(C)Nc1cc(-n2ncc3cc(C#N)cnc32)ncc1-c1cn(C2CCCCC2)nn1 [Example 17, 1-(5-(1-cyclohexyl-1H-1,2,3-triazol-4-yl)-4-(isopropylamino)pyridin-2-yl)-1H-pyrazolo[3,4-b]pyridine-5-carbonitrile] | 5 | 1970 | 
CC(C)Nc1cc(-n2ncc3cc(C#N)cnc32)ncc1-c1cn(-c2ccccc2F)nn1 [Example 20, 1-(5-(1-(2-fluorophenyl)-1H-1,2,3-triazol-4-yl)-4-(isopropylamino)pyridin-2-yl)-1H-pyrazolo [3,4-b]pyridine-5-carbonitrile] | 7 | 20000 | 
CC(C)Nc1cc(-n2ncc3cc(C#N)cnc32)ncc1-c1cn(C2CCN(C)C2=O)nn1 (stereo not drawn) [Example 22, 1-(4-(isopropylamino)-5-(1-(1-methyl-2-oxopyrrolidin-3-yl)-1H-1,2,3-triazol-4-yl)pyridin-2-yl)-1H-pyrazolo[3,4-b]pyridine-5-carbonitrile] | 4 |  | 490
CC(C)Nc1cc(-n2ncc3cc(C#N)cnc32)ncc1-c1cn(CCCO)nn1 [Example 28, 1-(5-(1-(3-hydroxypropyl)-1H-1,2,3-triazol-4-yl)-4-(isopropylamino)pyridin-2-yl)-1H-pyrazolo [3,4-b]pyridine-5-carbonitrile] | 6 | 1910 | 
CCn1cc(-c2cnc(-n3ncc4cc(Cl)cnc43)cc2NC(C)C)nn1 [Example 39, 2-(5-chloro-1H-pyrazolo[3,4-b]pyridin-1-yl)-5-(1-ethyl-1H-1,2,3-triazol-4-yl)-N-isopropylpyridin-4-amine] | 14 | 4300 | 
CC(C)Nc1cc(-n2ncc3cc(C#N)cnc32)ncc1-c1cn(CCCF)nn1 [Example 44, 1-(5-(1-(3-fluoropropyl)-1H-1,2,3-triazol-4-yl)-4-(isopropylamino)pyridin-2-yl)-1H-pyrazolo [3,4-b]pyridine-5-carbonitrile] | 7 | 630 | 
CC(C)Nc1cc(-n2ncc3cc(C#N)c(N)nc32)ncc1-c1cn(CCCF)nn1 [Example 46, 6-amino-1-(5-(1-(3-fluoropropyl)-1H-1,2,3-triazol-4-yl)-4-(isopropylamino)pyridin-2-yl)-1H-pyrazolo[3,4-b]pyridine-5-carbonitrile] | 14 | 490 | 
CC(C)Nc1cc(-n2cnc3cc(C#N)cnc32)ncc1-c1cn(CCc2ccccc2)nn1 [Example 57, 3-(4-(isopropylamino)-5-(1-phenethyl-1H-1,2,3-triazol-4-yl)pyridin-2-yl)-3H-imidazo[4,5-b]pyridine-6-carbonitrile] | 3 | 610 | 
CC(C)Nc1cc(-n2ncc3cc(C#N)cnc32)ncc1-c1cn(C[C@H](C)O)nn1 [Example 65, (S)-1-(5-(1-(2-hydroxypropyl)-1H-1,2,3-triazol-4-yl)-4-(isopropylamino)pyridin-2-yl)-1H-pyrazolo[3,4-b]pyridine-5-carbonitrile] | 9 | 420 | 
CC(C)Nc1cc(-n2cnc3cc(C#N)cnc32)ncc1-c1cn(C[C@H](C)O)nn1 [Example 69, (S)-3-(5-(1-(2-hydroxypropyl)-1H-1,2,3-triazol-4-yl)-4-(isopropylamino)pyridin-2-yl)-3H-imidazo[4,5-b]pyridine-6-carbonitrile] | 10 | 1370 | 

Second part, the molecule after the results:

IC50 (IRAK4) [nM] | EC50 ([1]; Homo sapiens) [nM] | EC50 [1] [nM] | SMILES
4 | 550 |  | CC(C)Nc1cc(-n2ncc3cc(C#N)cnc32)ncc1-c1cn([C@@H]2CCN(S(C)(=O)=O)C[C@H]2O)nn1 (single isomer, unassigned) [Example 199]
5 | 950 |  | CC(C)Nc1cc(-n2ncc3cc(C#N)cnc32)ncc1-c1cn([C@@H]2CCN(S(C)(=O)=O)C[C@H]2OS(C)(=O)=O)nn1 (single isomer, unassigned) [Example 202]
6 |  | 710 | CC(C)Nc1cc(-n2ncc3cc(C#N)cnc32)ncc1-c1cn([C@@H]2CCN(S(C)(=O)=O)C[C@H]2O)nn1 (single isomer, unassigned) [Example 204]
5 | 410 |  | CC(O)Cc1cn(-c2cnc(-n3ncc4cc(C#N)cnc43)cc2NC(C)C)nn1 (single isomer, unassigned) [Example 265, 1-(5-(4-(2-hydroxypropyl)-1H-1,2,3-triazol-1-yl)-4-(isopropylamino)pyridin-2-yl)-1H-pyrazolo[3,4-b]pyridine-5-carbonitrile]
14 | 850 |  | CC(F)Cc1cn(-c2cnc(-n3cnc4cc(C#N)cnc43)cc2NC(C)C)nn1 (single isomer, unassigned) [Example 291, 3-(5-(4-(2-fluoropropyl)-1H-1,2,3-triazol-1-yl)-4-(isopropylamino)pyridin-2-yl)-3H-imidazo[4,5-b]pyridine-6-carbonitrile]
7 |  | 1030 | CC(F)Cn1cc(-c2cnc(-n3ncc4cc(C#N)cnc43)cc2NC(C)C)nn1 (single isomer, unassigned; enantiomer 2) [Example 167, 1-(5-(1-(2-fluoropropyl)-1H-1,2,3-triazol-4-yl)-4-(isopropylamino)pyridin-2-yl)-1H-pyrazolo[3,4-b]pyridine-5-carbonitrile, enantiomer 2]
 | 950 |  | CC(C)Nc1cc(-n2ncc3cc(C#N)cnc32)ncc1-c1cn(CCN)nn1 [Example 172, 1-(5-(1-(2-aminoethyl)-1H-1,2,3-triazol-4-yl)-4-(isopropylamino)pyridin-2-yl)-1H-pyrazolo[3,4-b]pyridine-5-carbonitrile]
 | 1710 |  | CC(F)Cc1cn(-c2cnc(-n3ncc4cc(C#N)cnc43)cc2NC(C)C)nn1 (stereo not drawn) [Example 294, 1-(5-(4-(2-fluoropropyl)-1H-1,2,3-triazol-1-yl)-4-(isopropylamino)pyridin-2-yl)-1H-pyrazolo[3,4-b]pyridine-5-carbonitrile]
 | 380 |  | C[C@@H](CO)Nc1cc(-n2ncc3cc(C#N)cnc32)ncc1-n1cc(CCC(C)(C)O)nn1 [Example 376, (S)-1-(5-(4-(3-hydroxy-3-methylbutyl)-1H-1,2,3-triazol-1-yl)-4-((1-hydroxypropan-2-yl)amino)pyridin-2-yl)-1H-pyrazolo[3,4-b]pyridine-5-carbonitrile]
 | 490 |  | CC(C)(O)CCc1cn(-c2cnc(-n3ncc4cc(C#N)cnc43)cc2NC2CCC(O)CC2)nn1 (stereo not drawn) [Example 385, 1-(5-(4-(3-hydroxy-3-methylbutyl)-1H-1,2,3-triazol-1-yl)-4-(((1 s,4s)-4-hydroxycyclohexyl)amino)pyridin-2-yl)-1H-pyrazolo[3,4-b]pyridine-5-carbonitrile]
 | 470 |  | CC(C)Nc1cc(-n2ncc3cc(C#N)cnc32)ncc1-c1cc([C@@H]2CCCCN2)on1 [Example 430, (S)-1-(4-(isopropylamino)-5-(5-(piperidin-2-yl)isoxazol-3-yl)pyridin-2-yl)-1H-pyrazolo[3,4-b]pyridine-5-carbonitrile]
